One molecule from PMC9029994 (RSC Advances, 2021) can be followed below.

Structures are written as SMILES. pKd: −log10 of the molar value.

This test deals with Sperm whale WT Mb (myoglobin, Mb) (Physeter macrocephalus, UniProt P02185, F44H/H65A). Nature of the test: biochemical.
Sequence of Sperm whale WT Mb (myoglobin, Mb) (P02185 2-154 F44H/H65A): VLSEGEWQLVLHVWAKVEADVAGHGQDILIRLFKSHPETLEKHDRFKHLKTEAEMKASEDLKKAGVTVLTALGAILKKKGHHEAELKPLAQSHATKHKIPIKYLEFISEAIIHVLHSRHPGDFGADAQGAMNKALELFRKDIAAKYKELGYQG

By pKd is commonly meant the Kd on a negative log10 scale, so that one unit is a factor of ten. High values mean a low Kd, low ones a high Kd. Molecule `CN(C)c1ccc(C(=C2C=CC(=[N+](C)C)C=C2)c2ccccc2)cc1` [MG, malachite green] gave a pKd of 3.32.
